Test results taken from patent US12552854B2, “Peptides that block presentation of antigenic islet peptides by HLA-DQ8 and methods for treating type-1 diabetes” (Icahn School of Medicine at Mount Sinai, priority 2019, dated 2026).
Entries after “also recorded” stand apart in the source; their conditions may differ.

What was measured:
[1] = molecular target: T1, HLA-DQ8 expressed on BSM cells (Homo sapiens, UniProt P01909+P01920, F237L); experiment: Flow cytometric analysis of InsB:9-23 peptide binding to BSM cells; format: cell-based; settings: flow cytometry
T1 construct: BSM cells that express HLA-DQ8 on their surface; host or cells: BSM cells (B-cell line homozygous for HLA-DQ8)
Description: N-terminal biotinylated peptide InsB:9-23 (or gliadin) were used to test for binding to BSM cells that express HLA-DQ8 on their surface. APC-streptavidin (BD Biosciences, Franklin Lakes, NJ) were used to detect the biotinylated peptides. […] After 24 hours incubation, cells were stained with PE-mouse anti-human HLA-DQ8 (BD Biosciences) and APC-streptavidin to detect the percent binding of the peptide to BSM cells with or without D-peptides. Percent binding was analyzed by flow cytometry.

[2] = test system: T-cells of InsB:9-23-immunized SJL-DQ8 mice; experiment: In vivo D-peptide treatment of InsB:9-23-immunized SJL-DQ8 humanized mice; parameters: species or system mouse; settings: 200 μg intraperitoneally on days 4, 7, 11 and 14; sacrifice day 17
[3] = molecular target: T2, recombinant HLA-DQ8 protein (Homo sapiens, UniProt P01909+P01920); experiment: DELFIA immunoassay: inhibition of biotinylated InsB:9-23 binding to recombinant HLA-DQ8; settings: for inhibition of InsB:9-23 binding to HLA-DQ8 (in words): D-peptides screened at 10 μM, recombinant HLA-DQ8
T2 construct: contained the extracellular portion of the DQA1*0301 α chain fused to the coiled-coil region of the basic leucine zipper domain of Fos; contained the extracellular portion of the DQB1*0302 β chain fused to the coiled-coil region of the basic leucine zipper domain of JunB; Fos leucine zipper (coiled-coil region) (C); TEV protease site (internal); His6; JunB leucine zipper (coiled-coil region) (C); FLAG; host or cells: baculovirus system
Text: HLA-DQ8 protein was produced using the baculovirus system. Two constructs were designed for both the α and the β chains of HLA-DQ8. The β chain construct contained the extracellular portion of the DQB1*0302 β chain fused to the coiled-coil region of the basic leucine zipper domain of JunB, and the α chain construct contained the extracellular portion of the DQA1*0301 α chain fused to the coiled-coil region of the basic leucine zipper domain of Fos. […] A tobacco etch virus protease cutting site was introduced in each chain to allow removal of the dimerization motif. The JunB and Fos dimerization motifs were added in order to allow the α and β chains to dimerize and form the final HLA-DQ8 protein (FIG. 12A). These constructs were used to produce the HLA-DQ8 protein in a baculovirus system using the Life Technologies Baculovirus protein production custom services (Carlsbad, CA).
D-peptides were produced by Fisher Scientific (Hanover Park, IL) in dry form and dissolved in PBS. All D-peptides were screened at a concentration of 10 μM for their ability to bind to the HLA-DQ8 pocket and block it from binding the InsB:9-23 peptide using a unique immunoassay (23). […] After washing 4 times, DELFIA Europium-labeled streptavidin (PerkinElmer) diluted in DELFIA assay buffer (PerkinElmer) was added for 30 minutes and shaken at slow speed at room temperature. Since the InsB:9-23 peptide was biotinylated the complex HLA-DQ8-InsB:9-23 peptide could be detected using the Europium-labeled streptavidin. After washing for 6 times, DELFIA Enhancement Solution was added for 1 hour or until the optimal signal was reached. Time-resolved fluorescence was measured using the BMG reader (BMG Labtech, Cary, NC). The experiment was performed in triplicate. As a negative control biotinylated InsB:9-23 peptide that was not pre-incubated with HLA-DQ8 was added to the nickel coated plates.
Immunoassay was performed as described above.

[4] = Half-life and Intrinsic Clearance of RI-CT and RI-EXT (1 µM) after Incubation with Mouse Hepatocytes
Description: Table printed on a drawing sheet, FIG. 20
Title: Half-life and Intrinsic Clearance of RI-CT and RI-EXT (1 µM) after Incubation with Mouse Hepatocytes
First reader's note: The footnotes are printed inside the table frame as its last two rows; midazolam is a small-molecule positive control.

[5] = Metabolic stability in mouse hepatocytes; format: in vitro ADME; settings: mouse, hepatocytes; 1 μM; read-out: half-life after incubation with mouse hepatocytes (converted)
Description: Cryopreserved mouse hepatocytes were thawed at 37° C. in water bath until the ice was almost melted (˜90 seconds). The suspensions from the each were immediately transferred to 50 mL centrifuge tubes containing pre-warmed thawing media (VitroGRO HT Medium, Thawing) at 37° C. The cell suspensions were centrifuged at 50 g for 5 minutes at 4° C. (SYS679). Supernatants were discarded and the pellets were re-suspended in pre-warmed 3 mL incubation media (from in vitroGRO HT Medium, Incubation) at 37° C. The percentages of viable cells in the suspension were determined by using the Trypan Blue stain method (20 μL of tryptan blue and 20 μL of cell suspension) DF=2. Cryo mouse hepatocyte (Bioreclamation, lot #CHV) viability was 72.62% (viable/dead=305/115), and the total cells were 4.57 million. 1.57 mL of incubation media was added to cell concentration to get 1 million cells/mL. 10 μl of 100 μM test compounds stock in ACN:H2O (v:v, 1:1) was added to 990 μl of hepatocyte suspension/incubation media in a 24-well plate. 10 μl of 20 μM Midazolam was added to 990 μl of hepatocyte suspension as a positive control in a 24-well plate. The cells were incubated in a 37° C. incubator (SYS431) for 4 hours. 50 μl of aliquots (n=2) were added to 800 ul of MeOH:water (v:v, 5:95) at 0, 15, 30, 60, 120, 180 and 240 minutes. For all samples, 20 μL of internal standard (200 ng/mL tolbutamide) was added to the solution in water. The samples were vortexed vigorously for 5 minutes and then loaded onto a pre-conditioned Oasis HLB 96-well SPE plate (10 mg, […]). The Oasis HLB 96-well SPE plate was conditioned with 1 mL of methanol and then rinsed with 1 mL of water before the samples were loaded. Once loaded onto the Oasis HLB 96-well SPE plate, residual solution was removed by vacuum. The samples were eluted into a clean 96-well plate with 800 μL of 0.1% formic acid in 70% acetonitrile. The samples were evaporated to dryness under nitrogen at ambient temperature using a TurboVap 96 Concentration Workstation (Caliper Life Sciences). […]

[6] = test system: splenocytes isolated from SJL-DQ8 mice; experiment: Ex vivo CFSE T-cell proliferation, splenocytes of InsB:9-23-immunized SJL-DQ8 mice; format: cell-based, mouse; settings: all peptides at 50 μg/ml; 5 days
Text: ID NO: 23) and reverse primer [NT]

[7] = test system: PBMCs isolated from DQ8 positive T1D patients; experiment: Cytokine production in PBMCs from DQ8 positive recent-onset T1D patients; format: cell-based, human; settings: stimulated with InsB:9-23 for 48 h; all peptides at 50 μg/ml
Text: (§1) Subjects with a diagnosis of T1D within the previous 2 years were recruited from the Pediatric Endocrine clinic at Children Hospital at Montefiore and from the adult Endocrine clinics at Montefiore and Mount Sinai Hospitals (New York). Peripheral blood mononuclear cells (PBMCs) were isolated from heparinized blood using Ficoll-Paque (GE Healthcare); freshly isolated PBMCs were used for T-cell activation studies and for genotyping. DNA purified from the blood of the patients was typed for HLA-DQ as previously described (32). PBMCs isolated from DQ8 positive patients were seeded in 96 well plates with 200 μl medium (RPMI, 10% FBS). […] The stimulated PBMCs were assessed for cytokine production and T-cell proliferation as described above for mouse splenocytes. DQ8 typed patients with long standing T1D (>10 years) were used as negative controls in the experiments (no T-cell responses to islet peptides).

[8] = test system: PBMCs isolated from DQ8 positive T1D patients; experiment: CFSE T-cell proliferation in PBMCs from DQ8 positive recent-onset T1D patients; format: cell-based, human; settings: all peptides at 50 μg/ml
Text: as §1

[9] = test system: 5KC cells (TCR specific for the InsB:9-23-DQ8 complex) with BSM cells; experiment: Mixed lymphocyte reaction (BSM cells loaded with InsB:9-23 and 5KC cells), IL-2 by Luminex; format: cell-based, human, murine; settings: peptide loaded on BSM cells
Description: BSM cells homozygous for HLA-DQ8 (European Collection of Authenticated Cell Cultures) were cultured in RPMI growth medium (ATCC, Manassas, VA) supplied with 10% fetal bovine serum (FBS) (Sigma), 1% penicillin-streptomycin (Corning, NY), and 2 mM glutamine (Corning). Cells were grown at 37° C., 5% CO2, and passaged 1-2 times a week. 5KC cells (generously provided by Dr. Maki Nakayama, University of Colorado, Denver) were produced and cultured as described (25, 26).
To functionally test in vitro D-peptides ability to block T-cell activation, 10^6 BSM cells were incubated over night with 200 μg/ml InsB:9-23 (or with scrambled InsB:9-23 or gliadin as negative peptides); on the following day InsB:9-23 loaded BSM cells were washed twice with phosphate buffered saline (PBS) to remove excess peptide and RI-CT or RI-EXT peptides (or scrambled RI-CT/RI-EXT, as negative controls) were added to the cells. Following 2 hours of incubation at 37° C. 5KC cells were added to the mixture BSM-InsB:9-23-D-peptides (1:1 proportion) and incubated overnight. 5KC cells are transfected with human T-cell receptor that is activated only upon engagement with HLA-DQ8-InsB:9-23 complex. […] After overnight incubation of the 5KC cells with BSM cells loaded with InsB:9-23 and with different D-peptides IL-2 production was measured in the supernatants by Luminex assay. […]

T1 sequence (P01920 33-261 A45G/Y58L/E77G/D89A/H199R/T217I, other chains not shown): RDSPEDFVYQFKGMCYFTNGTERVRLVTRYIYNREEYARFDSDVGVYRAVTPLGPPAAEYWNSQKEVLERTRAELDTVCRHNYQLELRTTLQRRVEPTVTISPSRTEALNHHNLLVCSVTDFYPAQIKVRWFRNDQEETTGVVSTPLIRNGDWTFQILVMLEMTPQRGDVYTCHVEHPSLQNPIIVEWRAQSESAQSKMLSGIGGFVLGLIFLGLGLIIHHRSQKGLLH

CC(C)C[C@@H](NC(=O)[C@@H](Cc1ccc(O)cc1)NC(=O)[C@@H](CC(C)C)NC(=O)[C@H](NC(=O)[C@@H](CS)NC(=O)CNC(=O)[C@@H](CCC(=O)O)NC(=O)[C@@H](CCCNC(=N)N)NC(=O)CNC(=O)CNC(=O)[C@@H](Cc1ccccc1)NC(=O)[C@H](N)Cc1ccccc1)C(C)C)C(=O)N[C@H](C)C(=O)N[C@H](CCC(=O)O)C(=O)N[C@@H](C(=O)N[C@H](CC(C)C)C(=O)N[C@H](Cc1c[nH]cn1)C(=O)N[C@H](CO)C(=O)NCC(=O)O)C(C)C [RI-EXT]
inhibition of the binding of InsB:9-23 to DQ8 expressed on BSM cells (in words) ([1]; 10 μM peptide): inhibits the binding | activation of T-cells by InsB:9-23 in immunized mice (IL-2, IFN-γ of splenocytes) [2]: significantly blocked | inhibition of InsB:9-23 binding to HLA-DQ8 (in words) [3]: significant inhibition | inhibition of InsB:9-23 binding to HLA-DQ8 (in words) ([3]; listed as #10): best extended sequence | dose dependence of the inhibition of InsB:9-23 binding to HLADQ8 ([3]; serially diluted to 0.5 μM, FIG. 3D): dose-dependent | CLint (mL/min/million cells) [4]: 0.012 mL/min/million cells | t1/2 [4]: 0.963 h | half-life [5]: ~1 h | T-cell proliferation induced by InsB:9-23 (CFSE assay), SJL-DQ8 splenocytes [6]: significantly suppressed; also recorded: significantly decreased | IFN-γ production, PBMCs of DQ8 positive T1D patients [7]: significantly suppressed; also recorded: significantly decreased | IL-2 production, PBMCs of DQ8 positive T1D patients [7]: significantly suppressed; also recorded: significantly decreased | T-cell proliferation induced by InsB:9-23 (CFSE assay), PBMCs of DQ8 positive T1D patients [8]: significantly suppressed; also recorded: significantly decreased

SHLVEALYLVCGERG [InsB:9-23, diabetogenic insulin peptide, reference compound]
binding of InsB:9-23 to HLA-DQ8 positive BSM cells ([1]; incubated without D-peptides): 84.8% | binding to the recombinant HLA-DQ8 protein ([3]; biotinylated peptide, compared to scrambled InsB:9-23, FIG. 3B): significant binding | induction of IL-2 secretion in 5KC cells / activation of 5KC cells [9]: dose-dependent manner
